Data from US12419873B2, “Use of JAK inhibitors in preparation of drugs for treating JAK kinase-related diseases” (ZHUHAI UNITED LABORATORIES CO., LTD., priority 2020, dated 2025).
Entries after “also recorded” stand apart in the source; their conditions may differ.

Tests used:
TYK2 = TYK2 (Homo sapiens (Human), UniProt P29597); assay: In vitro activity test of TYK2 kinase; assay type: biochemical
Description: (§1) Recombinant human JAK1, JAK2, JAK3, TyK2 protease, main instruments and reagents were provided by Eurofins in the UK
(§2) All compounds were prepared into a 100% DMSO solution and reached 50 times the final determined concentration. The test compound was diluted by 3 times the concentration gradient, and the final concentration was 10 μM to 0.001 μM, 9 concentrations in total, and the content of DMSO in the detection reaction was 2%. The working stock solution of the compound was added to a determination hole as the first component of the reaction, and then the remaining components were added according to the detailed scheme determination below.
(§3) Mg/ATP mixture was added to start the reaction. After incubation at room temperature for 40 minutes, 0.5% phosphoric acid was added to stop the reaction.

JAK2 = JAK2 (Homo sapiens (Human), UniProt O60674); assay: In vitro activity test of JAK2 kinase; conditions: read-out: JAK2 (IC50)
JAK2, sequence (O60674 whole entry): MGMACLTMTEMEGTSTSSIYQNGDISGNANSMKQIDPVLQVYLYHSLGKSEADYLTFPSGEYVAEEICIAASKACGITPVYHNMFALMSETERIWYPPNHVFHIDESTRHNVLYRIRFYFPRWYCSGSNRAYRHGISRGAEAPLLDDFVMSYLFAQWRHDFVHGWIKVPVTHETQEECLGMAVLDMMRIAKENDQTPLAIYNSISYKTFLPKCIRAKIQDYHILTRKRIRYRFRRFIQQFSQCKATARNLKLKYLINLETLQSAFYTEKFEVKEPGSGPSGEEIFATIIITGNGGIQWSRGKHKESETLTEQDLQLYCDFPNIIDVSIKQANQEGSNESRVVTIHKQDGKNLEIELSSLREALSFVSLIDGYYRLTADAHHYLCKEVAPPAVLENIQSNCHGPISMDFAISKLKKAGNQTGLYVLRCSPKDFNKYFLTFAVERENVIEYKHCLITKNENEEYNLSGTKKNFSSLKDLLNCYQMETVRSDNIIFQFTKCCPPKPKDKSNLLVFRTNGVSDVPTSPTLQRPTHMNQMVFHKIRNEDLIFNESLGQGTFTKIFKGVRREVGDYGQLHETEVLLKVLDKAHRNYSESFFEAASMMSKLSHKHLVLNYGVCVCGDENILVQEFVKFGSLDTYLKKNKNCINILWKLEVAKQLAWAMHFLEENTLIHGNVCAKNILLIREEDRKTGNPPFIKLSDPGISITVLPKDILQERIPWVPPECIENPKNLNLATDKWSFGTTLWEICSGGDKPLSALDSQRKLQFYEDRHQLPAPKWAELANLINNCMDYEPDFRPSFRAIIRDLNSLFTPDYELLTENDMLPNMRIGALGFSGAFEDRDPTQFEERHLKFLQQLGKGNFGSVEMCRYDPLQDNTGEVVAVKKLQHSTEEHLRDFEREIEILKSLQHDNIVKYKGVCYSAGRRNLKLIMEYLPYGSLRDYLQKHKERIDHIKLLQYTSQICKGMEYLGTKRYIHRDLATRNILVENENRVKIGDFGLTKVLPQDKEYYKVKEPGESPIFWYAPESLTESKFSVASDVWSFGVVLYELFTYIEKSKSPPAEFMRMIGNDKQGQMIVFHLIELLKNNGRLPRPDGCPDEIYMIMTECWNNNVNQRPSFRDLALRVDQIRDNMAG

JAK1 = JAK1 (Homo sapiens (Human), UniProt P23458); assay: In vitro activity test of JAK1 kinase; assay type: biochemical
JAK1, sequence (P23458 whole entry): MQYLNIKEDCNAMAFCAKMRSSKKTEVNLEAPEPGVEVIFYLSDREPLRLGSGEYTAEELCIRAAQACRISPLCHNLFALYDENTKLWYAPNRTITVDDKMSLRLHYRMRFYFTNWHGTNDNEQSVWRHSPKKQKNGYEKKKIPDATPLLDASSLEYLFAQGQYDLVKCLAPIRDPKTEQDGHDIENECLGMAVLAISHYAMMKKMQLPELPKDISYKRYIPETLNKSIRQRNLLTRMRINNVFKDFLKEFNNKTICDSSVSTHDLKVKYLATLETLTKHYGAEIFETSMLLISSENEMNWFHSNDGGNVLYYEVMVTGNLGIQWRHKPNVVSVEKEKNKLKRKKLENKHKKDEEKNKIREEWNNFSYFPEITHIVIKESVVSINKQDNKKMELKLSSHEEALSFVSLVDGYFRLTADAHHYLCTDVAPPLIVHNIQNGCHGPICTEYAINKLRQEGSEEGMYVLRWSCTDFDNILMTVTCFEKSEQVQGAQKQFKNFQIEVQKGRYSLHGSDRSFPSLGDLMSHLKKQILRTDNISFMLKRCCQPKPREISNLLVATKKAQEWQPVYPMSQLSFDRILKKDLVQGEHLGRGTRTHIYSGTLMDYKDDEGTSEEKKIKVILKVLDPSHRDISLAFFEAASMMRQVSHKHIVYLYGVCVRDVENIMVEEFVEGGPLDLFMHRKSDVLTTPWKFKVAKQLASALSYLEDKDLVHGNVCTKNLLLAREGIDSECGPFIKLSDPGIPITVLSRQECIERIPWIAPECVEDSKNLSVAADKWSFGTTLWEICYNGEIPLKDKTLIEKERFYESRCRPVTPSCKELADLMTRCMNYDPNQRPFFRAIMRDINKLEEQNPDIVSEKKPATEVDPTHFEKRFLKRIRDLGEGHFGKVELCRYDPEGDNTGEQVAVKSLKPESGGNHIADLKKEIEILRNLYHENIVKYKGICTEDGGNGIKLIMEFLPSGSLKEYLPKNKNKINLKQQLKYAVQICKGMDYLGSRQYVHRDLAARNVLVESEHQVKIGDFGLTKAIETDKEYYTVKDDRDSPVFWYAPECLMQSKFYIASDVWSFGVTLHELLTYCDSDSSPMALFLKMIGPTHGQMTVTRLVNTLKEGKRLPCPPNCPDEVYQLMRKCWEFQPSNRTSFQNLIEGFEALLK
Description: as §1, §2, §3

JAK3 = JAK3 (Homo sapiens (Human), UniProt P52333); assay: In vitro activity test of JAK3 kinase; assay type: biochemical
JAK3, sequence (P52333 whole entry): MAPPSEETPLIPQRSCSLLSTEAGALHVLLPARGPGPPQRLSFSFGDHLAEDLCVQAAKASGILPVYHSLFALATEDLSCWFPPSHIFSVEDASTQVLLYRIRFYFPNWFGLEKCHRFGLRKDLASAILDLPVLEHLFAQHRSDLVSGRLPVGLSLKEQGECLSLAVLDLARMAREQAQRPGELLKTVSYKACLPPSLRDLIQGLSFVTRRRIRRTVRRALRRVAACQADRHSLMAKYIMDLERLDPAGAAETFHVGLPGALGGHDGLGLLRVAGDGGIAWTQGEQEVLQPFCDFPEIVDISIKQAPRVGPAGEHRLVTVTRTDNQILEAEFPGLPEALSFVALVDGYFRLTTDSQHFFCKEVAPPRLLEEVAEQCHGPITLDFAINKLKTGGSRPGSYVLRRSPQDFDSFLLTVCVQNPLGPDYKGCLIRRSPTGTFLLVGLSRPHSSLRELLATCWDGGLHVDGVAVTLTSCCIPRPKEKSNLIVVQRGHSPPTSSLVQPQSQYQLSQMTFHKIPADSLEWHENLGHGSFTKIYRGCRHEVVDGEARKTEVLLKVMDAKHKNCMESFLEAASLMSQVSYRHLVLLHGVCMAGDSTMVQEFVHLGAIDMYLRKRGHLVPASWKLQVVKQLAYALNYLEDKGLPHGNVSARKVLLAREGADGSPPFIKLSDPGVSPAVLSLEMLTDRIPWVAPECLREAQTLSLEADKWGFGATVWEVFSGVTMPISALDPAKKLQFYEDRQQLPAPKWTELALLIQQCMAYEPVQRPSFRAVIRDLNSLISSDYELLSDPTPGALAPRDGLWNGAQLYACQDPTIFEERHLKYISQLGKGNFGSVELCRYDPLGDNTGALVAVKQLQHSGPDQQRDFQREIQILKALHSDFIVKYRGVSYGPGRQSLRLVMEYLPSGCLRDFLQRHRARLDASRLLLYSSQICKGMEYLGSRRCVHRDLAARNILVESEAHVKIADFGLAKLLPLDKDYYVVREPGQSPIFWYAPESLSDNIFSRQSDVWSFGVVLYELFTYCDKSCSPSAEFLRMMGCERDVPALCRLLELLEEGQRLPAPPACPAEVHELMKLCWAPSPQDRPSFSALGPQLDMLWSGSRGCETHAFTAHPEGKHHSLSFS
Description: as §1, §2, §3

[1] = test system: DNCB induced allergic dermatitis in mice; assay: In vivo pharmacodynamic study on DNCB induced allergic dermatitis (AD) in mice
Description: The animal allergic dermatitis model induced by 1-chloro-2,4-dinitrobenzene (DNCB) is basically consistent with the clinical manifestations of AD patients.
Preparation method of solvent: vehicle solution is 30% PEG-400+70% (5% HP-β-CD), pH 4-5. Firstly, 35 g HP-β-CD was dissolved in 700 mL MilliQ pure water, 300 mL PEG-400 was added and mixed well, the pH was adjusted to 4-5, and stored at room temperature.
Preparation method of compounds: the compounds were weighed and added to 30% PEG-400+ 70% (5% HP-β-CD) solution (by volume), and ultrasonically processed. After the solution was fully mixed, it is load into glass bottles and stored in a 4° C. refrigerator.
Seventy male Balb/c mice were weighed and randomly divided into 7 groups with 10 mice in each group.
The animal adaptation period was 3 days. It was adapted to shaving on the back. After 2 days, it was sensitized with the modeling solution, coated with 20 μL 0.5% DNCB solution on the right ear of the mouse, applied with 200 μL 0.5% DNCB solution on the back, once a day for 3 days. The mice were stimulated from day 4, and applied with 10 μL 1% DNCB solution on the right ear of mice, 100 μL 1% DNCB solution on the back of mice, respectively, once every 3 days.
On days 3, 9, 15, 21, and 27, the severity of specific dermatitis was evaluated by evaluating four clinical inflammatory indicators of atopic dermatitis: Erythema/bleeding, scar/dryness, edema, and infiltration/erosion. Each evaluation index has four grades: 0, none; 1. slight; 2. moderate; 3. obvious; 4. very obvious. Sum the scores represents score of the skin. […] The spleen was taken and the spleen index was calculated: spleen index=spleen weight (mg)/body weight (g).
The experimental data were expressed by means±standard error (Mean±SEM), and all data were statistically analyzed by one-way ANOVA, with P<0.05 as the statistical difference.

[2] = test system: DSS induced ulcerative colitis and Crohn's disease in mice; assay: In vivo pharmacodynamic study on DSS induced inflammatory bowel disease (IBD) in mice; set-up: species or system mice (C57BL/6); Colon length: unit not given here
From the text: Inflammatory bowl disease (IBD) is a kind of recurrent disease. It is difficult to cure, has a high recurrence rate, and has a poor prognosis, it has a certain correlation with the incidence of colon cancer. The development of drugs for the treatment of IBD will help alleviate the symptoms of ulcerative colitis and Crohn's disease and improve the quality of life of patients. The mouse inflammation model induced by dextran sulfate sodium (DSS) is similar to the human disease ulcerative colitis and Crohn's disease. It is a common classical model for preclinical evaluation of drug efficacy.
Preparation method of DSS: 20 g DSS was weighed, 1000 mL drinking water was added to form 2% DSS solution, and stored in a 4° C. refrigerator. It is effective within one month.
Preparation method of a solvent: Vehicle solution is an aqueous solution containing 0.5% methylcellulose and 0.5% Tween 80. Firstly, 5 g of methylcellulose was dissolved in 990 mL of pure water, then 5 g of Tween 80 was added in small amount for many times, mixed evenly and stored at room temperature.
Preparation method of compounds: the compound was weighed, an aqueous solution with a mass ratio of 0.5% methylcellulose+0.5% Tween 80 was added, and it was processed by ultrasonic until it was dissolved.
The adaptation period of the animals was 3 days. After adaptation, the animals were weighed every day. The blank group was given drinking water, and the other groups were given drinking water containing 2% DSS. The water volume was 5 mL/animal/day. The animals in the test drug group were administrated by gavage once a day. The blank group and […] group were given the same volume of vehicle, with the administration volume of 10 mL/kg. Every other day, the fecal viscosity was evaluated, feces were collected for fecal occult blood detection, and the disease activity index (DAI) score was calculated. DSS consumption was detected every day. Fresh DSS solution was replaced every two days. The dosing cycle was continuous intragastric administration for 7 days, followed by 4 days of drug withdrawal, followed by 7 days of continuous intragastric administration. Normal drinking water was changed when intragastric administration was stopped.
DAI is the sum of the scores of body weight, fecal viscosity and fecal occult blood. Among them, the semi quantitative detection method of piramine cave was adopted for detecting fecal occult blood, including adding piramine cave to the sample first, then adding hydrogen peroxide and ethanol solution, and reading and scoring the color within 2 min. Immediately generating purple blue is marked as 4+, generating the purple blue within 10 s is marked as 3+, generating purple red within 1 min is marked as 2+, and gradually generating the purple red within 1-2 min is marked as 1+, and generating no color reaction of purple orchid or purple red within the reading time is recorded as negative (−). After the experiment, the colon and spleen were taken, and the length of colon and the weight of spleen were measured. The spleen index was the ratio of spleen weight to body weight.

[3] = after the experiment, 30 mg/kg p.o. qd, 28 days, Mean±SEM
[4] = day 2, 15 mg/kg p.o. qd, Mean±SEM
[5] = day 4, 15 mg/kg p.o. qd, Mean±SEM
[6] = day 6, 15 mg/kg p.o. qd, Mean±SEM
[7] = day 8, 15 mg/kg p.o. qd, Mean±SEM
[8] = day 12, 15 mg/kg p.o. qd, Mean±SEM
[9] = day 14, 15 mg/kg p.o. qd, Mean±SEM
[10] = day 16, 15 mg/kg p.o. qd, Mean±SEM
[11] = day 18, 15 mg/kg p.o. qd, Mean±SEM

TYK2, sequence (P29597 whole entry): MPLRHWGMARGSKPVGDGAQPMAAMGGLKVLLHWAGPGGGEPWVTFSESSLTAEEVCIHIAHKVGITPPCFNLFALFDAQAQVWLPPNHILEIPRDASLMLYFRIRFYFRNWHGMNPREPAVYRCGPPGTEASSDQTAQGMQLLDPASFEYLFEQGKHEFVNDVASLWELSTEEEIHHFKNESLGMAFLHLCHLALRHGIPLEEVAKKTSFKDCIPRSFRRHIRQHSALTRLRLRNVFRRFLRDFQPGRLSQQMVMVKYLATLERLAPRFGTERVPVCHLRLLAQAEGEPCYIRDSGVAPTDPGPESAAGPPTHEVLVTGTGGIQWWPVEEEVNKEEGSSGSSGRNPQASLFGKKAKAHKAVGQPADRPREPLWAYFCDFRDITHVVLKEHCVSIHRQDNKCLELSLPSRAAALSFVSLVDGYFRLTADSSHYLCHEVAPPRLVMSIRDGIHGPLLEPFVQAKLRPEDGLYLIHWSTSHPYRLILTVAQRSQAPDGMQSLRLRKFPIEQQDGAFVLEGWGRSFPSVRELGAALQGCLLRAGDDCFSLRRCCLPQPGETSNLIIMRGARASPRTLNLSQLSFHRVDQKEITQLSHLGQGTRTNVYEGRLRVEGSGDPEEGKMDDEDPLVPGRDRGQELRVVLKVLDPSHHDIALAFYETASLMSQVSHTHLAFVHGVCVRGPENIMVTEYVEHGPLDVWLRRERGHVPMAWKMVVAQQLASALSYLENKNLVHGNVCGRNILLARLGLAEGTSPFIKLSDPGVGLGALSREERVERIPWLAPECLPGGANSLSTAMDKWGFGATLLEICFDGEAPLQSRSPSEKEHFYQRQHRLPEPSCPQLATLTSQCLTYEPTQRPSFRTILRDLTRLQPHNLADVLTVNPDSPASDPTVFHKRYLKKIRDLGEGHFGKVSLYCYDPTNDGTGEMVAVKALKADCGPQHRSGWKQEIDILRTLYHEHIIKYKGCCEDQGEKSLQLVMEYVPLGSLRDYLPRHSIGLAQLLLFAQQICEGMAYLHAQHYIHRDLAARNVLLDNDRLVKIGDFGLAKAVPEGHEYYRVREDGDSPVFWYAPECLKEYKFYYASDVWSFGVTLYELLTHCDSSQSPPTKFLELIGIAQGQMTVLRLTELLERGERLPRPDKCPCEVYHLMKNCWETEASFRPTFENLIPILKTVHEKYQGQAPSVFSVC

Compound: O=C(Nc1nc2cccc([C@H]3CCC4(CCN(C(=O)[C@@H]5CC5(F)F)CC4)C3)n2n1)C1CC1 (single isomer, unassigned) [Compound 6-7]
- IC50 (TYK2): 829 nM
- IC50 (JAK2): 998 nM
- IC50 (JAK1): 63 nM
- IC50 (JAK3): 9390 nM

Compound: O=C(Nc1nc2cccc([C@@H]3CCC4(CCN(C(=O)[C@@H]5CC5(F)F)CC4)C3)n2n1)C1CC1 (single isomer, unassigned) [Compound 6-8]
- IC50 (TYK2): 570 nM
- IC50 (JAK2): 1920 nM
- IC50 (JAK1): 381 nM
- IC50 (JAK3): > 10000 nM

Compound: N#CCC(=O)N1CC2(CCC(F)(c3cccc4nc(NC(=O)C5CC5)nn34)CC2)C1 [Compound 4-6]
- IC50 (TYK2): 307 nM
- IC50 (JAK2): 2010 nM
- IC50 (JAK1): 170 nM
- IC50 (JAK3): 8450 nM

Compound: O=C(Nc1nc2cccc(C3CCC4(CC3)CN(C(=O)[C@H]3CC3(F)F)C4)n2n1)[C@H]1CC1(F)F [Compound 8-6]
- IC50 (TYK2): 127 nM
- IC50 (JAK2): 110 nM
- IC50 (JAK1): 14 nM
- IC50 (JAK3): 7640 nM

Compound: N#CCN1CC2(CCC(c3cccc4nc(NC(=O)[C@H]5CC5(F)F)nn34)CC2)C1 [Compound 8-9]
- IC50 (TYK2): 1330 nM
- IC50 (JAK2): 3670 nM
- IC50 (JAK1): 52 nM
- IC50 (JAK3): > 10000 nM

Compound: O=C(Nc1nc2cccc(C3CCC4(CC3)CN(C(=O)[C@H]3CC3(F)F)C4)n2n1)[C@@H]1CC1(F)F [Compound 9-3]
- IC50 (TYK2): 105 nM
- IC50 (JAK2): 292 nM
- IC50 (JAK1): 7 nM
- Effect on the weight of mice (in words) ([1]; 30 mg/kg p.o. qd, 28 days): no significant effect
- Effect on treating allergic dermatitis (in words) ([1]; 30 mg/kg p.o. qd, DNCB mice): good disease treatment effect; also recorded: significant effect
- Concentration of IgE in serum after drug intervention (in words) ([1]; 30 mg/kg p.o., vs DNCB group): significantly decreased
- Spleen index after drug intervention (in words) ([1]; 30 mg/kg p.o., vs DNCB group): significantly decreased
- Thickness of the right ear after drug intervention (in words) ([1]; 30 mg/kg p.o., vs DNCB group): significantly decreased
- IgE concentration in serum [1, 3]: 6.39 ± 1.04
- Thickness of the right ear [1, 3]: 0.252 ± 0.006
- Weight of mice ([1]; day 1, 30 mg/kg p.o. qd from day 4, Mean±SEM): 19.32 ± 0.46
- Skin score ([1]; day 3, 30 mg/kg p.o. qd from day 4, Mean±SEM): 0.7 ± 0.5
- Weight of mice ([1]; day 4, 30 mg/kg p.o. qd, Mean±SEM): 20.02 ± 0.41
- Weight of mice ([1]; day 7, 30 mg/kg p.o. qd, Mean±SEM): 19.24 ± 0.47
- Skin score ([1]; day 9, 30 mg/kg p.o. qd, Mean±SEM): 3.4 ± 0.7
- Weight of mice ([1]; day 10, 30 mg/kg p.o. qd, Mean±SEM): 19.41 ± 0.58
- Weight of mice ([1]; day 13, 30 mg/kg p.o. qd, Mean±SEM): 20.83 ± 0.42
- Skin score ([1]; day 15, 30 mg/kg p.o. qd, Mean±SEM): 4.2 ± 0.6
- Weight of mice ([1]; day 16, 30 mg/kg p.o. qd, Mean±SEM): 21.49 ± 0.45
- Weight of mice ([1]; day 19, 30 mg/kg p.o. qd, Mean±SEM): 23.36 ± 0.38
- Skin score ([1]; day 21, 30 mg/kg p.o. qd, Mean±SEM): 5.4 ± 0.9
- Weight of mice ([1]; day 22, 30 mg/kg p.o. qd, Mean±SEM): 23.67 ± 0.37
- Weight of mice ([1]; day 25, 30 mg/kg p.o. qd, Mean±SEM): 23.14 ± 0.42
- Skin score ([1]; day 27, 30 mg/kg p.o. qd, Mean±SEM): 2.2 ± 0.9
- Skin score compared with DNCB group (in words) ([1]; day 27 of administration, 30 mg/kg p.o.): significant reduction
- Weight of mice ([1]; day 28, 30 mg/kg p.o. qd, Mean±SEM): 24.15 ± 0.50
- Spleen index ([1]; spleen weight (mg)/body weight (g), 30 mg/kg p.o. qd, 28 days, Mean±SEM): 4.17 ± 0.65
- Colon shortening caused by DSS, compared with DSS group (in words) ([2]; 15 mg/kg p.o.): can reduce colon shortening
- Increase of spleen index induced by DSS (in words) ([2]; 15 mg/kg p.o.): could reduce the increase of spleen index
- Colon length ([2]; after the experiment, 15 mg/kg p.o. qd, Mean±SEM): 2.87 ± 0.11
- Weight of mice ([2]; day 1, 15 mg/kg p.o. qd, Mean±SEM): 22.26 ± 0.29
- DAI score [2, 4]: 0.40 ± 0.16
- Weight of mice [2, 4]: 22.48 ± 0.29
- Weight of mice ([2]; day 3, 15 mg/kg p.o. qd, Mean±SEM): 22.39 ± 0.27
- DAI score [2, 5]: 1.70 ± 0.54
- Weight of mice [2, 5]: 22.26 ± 0.31
- Weight of mice ([2]; day 5, 15 mg/kg p.o. qd, Mean±SEM): 22.18 ± 0.40
- DAI score [2, 6]: 2.40 ± 0.37
- Weight of mice [2, 6]: 22.00 ± 0.43
- Weight of mice ([2]; day 7, 15 mg/kg p.o. qd, Mean±SEM): 21.21 ± 0.53
- DAI score [2, 7]: 4.70 ± 0.94
- Weight of mice [2, 7]: 20.72 ± 0.67
- Weight of mice ([2]; day 9, 15 mg/kg p.o. qd, Mean±SEM): 19.89 ± 0.37
- Weight of mice ([2]; day 10, 15 mg/kg p.o. qd, Mean±SEM): 18.92 ± 0.47
- Weight of mice ([2]; day 11, 15 mg/kg p.o. qd, Mean±SEM): 18.60 ± 0.62
- DAI score [2, 8]: 4.11 ± 0.53
- Weight of mice [2, 8]: 18.50 ± 0.74
- Weight of mice ([2]; day 13, 15 mg/kg p.o. qd, Mean±SEM): 19.42 ± 0.78
- DAI score [2, 9]: 4.88 ± 0.44
- Weight of mice [2, 9]: 19.26 ± 0.93
- Weight of mice ([2]; day 15, 15 mg/kg p.o. qd, Mean±SEM): 19.96 ± 0.84
- DAI score [2, 10]: 3.67 ± 0.86
- Weight of mice [2, 10]: 20.84 ± 0.46
- Weight of mice ([2]; day 17, 15 mg/kg p.o. qd, Mean±SEM): 20.42 ± 0.50
- DAI score [2, 11]: 4.83 ± 0.68
- Weight of mice [2, 11]: 19.78 ± 0.43
- Spleen index ([2]; ratio of spleen weight to body weight, 15 mg/kg p.o. qd, Mean±SEM): 4.98 ± 0.40
- IC50 (JAK3): > 10000 nM

Compound: N#CCN1CC2(CCC(c3cccc4nc(NC(=O)[C@@H]5CC5(F)F)nn34)CC2)C1 [Compound 9-6]
- IC50 (TYK2): 1390 nM
- IC50 (JAK2): 1170 nM
- IC50 (JAK1): 432 nM
- IC50 (JAK3): > 10000 nM
